The subject of one test is PPARg. Nature of the test: PPARgamma Transient Cotransfection Assay. In kind it is cell-based. To be noted: CAT reporter, read-out: PPARg EC50.
The target of the next test is T1, hPPARgamma (Homo sapiens, UniProt P37231).
T1 construct: 10x-histidine tag (N); made in house; host or cells: E. coli
T1 sequence (P37231 195-475 isoform P37231-2): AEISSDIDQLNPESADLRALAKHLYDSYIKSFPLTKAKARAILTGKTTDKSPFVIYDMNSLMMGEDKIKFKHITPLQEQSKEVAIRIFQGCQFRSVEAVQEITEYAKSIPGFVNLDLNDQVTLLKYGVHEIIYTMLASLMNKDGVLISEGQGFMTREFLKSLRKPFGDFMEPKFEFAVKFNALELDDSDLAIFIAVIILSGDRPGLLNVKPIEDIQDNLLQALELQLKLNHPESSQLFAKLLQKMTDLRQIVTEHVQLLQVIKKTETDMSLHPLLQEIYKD
Nature of the test: hPPARgamma Ligand Binding Assay.

[1] abbreviates: PPARg Ki, competition with [3H]-BRL 49,653, room temperature 2 hrs.

Counter-ions that a name gives are not always drawn. Like-named read-outs stand apart in the source and are kept apart here.

Procedure for hPPARgamma: 2. hPPARgamma Ligand Binding Assay: The PPAR-gamma ligand binding domain (amino acids 195-475) was expressed with an N-terminal 10×-histidinetag in E. coli cells. The cells were lysed and receptor was purified by means of the epitope tag. The stock solution of protein was diluted to 200 nM in assay buffer (50 mM Tris, 50 mM KCl, pH 8 20 mM CHAPS, 2 mM EDTA 10 mM DTT (Fresh)) just before use.
Test compounds were prepared as 6 mM stock solutions in DMSO. […] The right-most column of wells was used for controls. […] Plates were incubated at room temperature for 2 hrs, and then cooled on ice for 30 minutes. 50 uL samples from each well of a single test plate were simultaneously loaded onto an equilibrated AGTC 96 well gel filtration block (Advanced Genetics Technology Corp.) using a Zymak Rapidplate automated pipettor. The block was placed on top of a clean microtiter plate and centrifuged @1,100×g for 4 min. 200 uL of scintillation fluid was added to each well, the plates were sealed and allowed to equilibrate for at least 4 hours before counting in a Wallac 1250 Microbeta counter.
Ki's were determined from a nonlinear least squares fit of the data to a simple competitive binding model.

Turning to `CN(CCOc1ccc(CC(Nc2ccccc2C(=O)c2ccc(C(F)(F)F)cc2)C(=O)O)cc1)c1nc2ccccc2o1` (stereo not drawn) [Example 73], in the test on PPARg, the EC50 worked out at 25 nM. In addition, at hPPARgamma (setting [1]), the affinity, expressed as Ki, was 115 nM.

Regarding `CN(CCOc1ccc(CC(Nc2ccccc2C(=O)c2cccs2)C(=O)O)cc1)c1nc2ccccc2o1` (stereo not drawn) [Example 74], in the test on PPARg, the EC50 is 55 nM. Further, at hPPARgamma (setting [1]), the Ki came to 800 nM.

For `CN(CCOc1ccc(CC(Nc2ccccc2C(=O)c2ccsc2)C(=O)O)cc1)c1nc2ccccc2o1` (stereo not drawn) [Example 75], the EC50 in the test with PPARg is 100 nM. The same compound showed a Ki on hPPARgamma (setting [1]) of 75 nM.

For `CN(CCOc1ccc(CC(Nc2ccccc2C(=O)c2cccc(C(F)(F)F)c2)C(=O)O)cc1)c1nc2ccccc2o1` (stereo not drawn) [Example 76], the EC50 in the test with PPARg amounted to 10 nM. For the same compound, the Ki at hPPARgamma (setting [1]) worked out at 110 nM.

`CN(CCOc1ccc(CC(Nc2ccccc2C(=O)c2ccccc2C(F)(F)F)C(=O)O)cc1)c1nc2ccccc2o1` (stereo not drawn) [Example 77]: the EC50 in the test on PPARg amounted to 65 nM. Also, on hPPARgamma (setting [1]), the Ki was determined as 155 nM.

As to `COc1cccc(C(=O)c2ccccc2NC(Cc2ccc(OCCN(C)c3nc4ccccc4o3)cc2)C(=O)O)c1` (stereo not drawn) [Example 78], in the test with PPARg, the EC50 came to 200 nM. The inhibition constant (Ki) at hPPARgamma (setting [1]) came to 40 nM.

`COc1ccccc1C(=O)c1ccccc1NC(Cc1ccc(OCCN(C)c2nc3ccccc3o2)cc1)C(=O)O` (stereo not drawn) [Example 79]: the EC50 with PPARg turned out to be 30 nM. The compound also showed a Ki at hPPARgamma (setting [1]) of 50 nM.

For `Cc1cccc(C(=O)c2ccccc2NC(Cc2ccc(OCCN(C)c3nc4ccccc4o3)cc2)C(=O)O)c1` (stereo not drawn) [Example 80], the EC50 with PPARg was 10 nM. Moreover, the Ki at hPPARgamma (setting [1]) stood at 10 nM.

Turning to `Cc1oc(-c2ccccc2)nc1CCOc1ccc(CC(Nc2ccccc2C(=O)c2ccc(CN(C)C)cc2)C(=O)O)cc1` (stereo not drawn) [Example 81, 2-[2-(4-dimethylaminomethyl-benzoyl)-phenylamino]-3-{4-[2-(5-methyl-2-phenyl-oxazol-4-yl)-ethoxy]-phenyl}-propionic acid hydrochloride], the EC50 with PPARg turned out to be 400 nM. The compound further came in with a Ki at hPPARgamma (setting [1]) of 130 nM.

With `Cc1oc(-c2ccccc2)nc1CCOc1ccc(CC(Nc2ccccc2C(=O)c2ccc(CN)cc2)C(=O)O)cc1` (stereo not drawn) [Example 82, 2-[2-(4-aminomethyl-benzoyl)-phenylamino]-3-{4-[2-(6-methyl-2-phenyl-oxazol-4-yl)-ethoxy]-phenyl}-propionic acid hydrochloride], the EC50 in the test on PPARg amounted to 25 nM. The Ki on hPPARgamma (setting [1]) was 65 nM.

In the case of `Cc1cccc(C)c1C(=O)c1ccccc1NC(Cc1ccc(OCCN(C)c2nc3ccccc3o2)cc1)C(=O)O` (stereo not drawn) [Example 83], the EC50 in the test on PPARg turned out to be 165 nM. This compound gave an inhibition constant Ki at hPPARgamma (setting [1]) of 350 nM.

Take `Cc1oc(-c2ccccc2)nc1CCOc1ccc(CC(Nc2ccccc2C(=O)c2cccc(CN)c2)C(=O)O)cc1` (stereo not drawn) [Example 86, 2-[2-(3-aminomethyl-benzoyl)-phenylamino]-3-{4-[2-(5-methyl-2-phenyl-oxazol-4-yl)-ethoxy]-phenyl}-propionic acid hydrochloride]: the EC50 in the test with PPARg came to 30 nM. The same compound had a Ki on hPPARgamma (setting [1]) of 650 nM.

For `Cc1oc(-c2ccccc2)nc1CCOc1ccc(CC(Nc2ccccc2C(=O)c2cccc(CN(C)C)c2)C(=O)O)cc1` (stereo not drawn) [Example 87, 2-[2-(3-dimethylaminomethyl-benzoyl)-phenylamino]-3-{4-[2-(5-methyl-2-phenyl-oxazol-4-yl)-ethoxy]-phenyl}-propionic acid hydrochloride], the EC50 with PPARg is 465 nM. For the same compound, at hPPARgamma (competition with [3H]-BRL 49,653, room temperature 2 hrs; read-out: PPARg Ki), the Ki was 1160 nM.

On to `Cc1oc(-c2ccccc2)nc1CCOc1ccc(C[C@H](Nc2ccccc2C(=O)NCCN)C(=O)O)cc1` [Example 89, 2-(S)-(1-carboxy-2-{4-{2-(5-methyl-2-phenyl-oxazol-4-yl)-ethoxy]-phenyl}-ethylamino)-benzoic acid 2-aminoethyl amide hydrochloride], for which the EC50 with PPARg stood at 60 nM. The compound also displayed a Ki at hPPARgamma (setting [1]) of 3000 nM.

Take `CN(CCOc1ccc(CC(Nc2ccccc2C(=O)c2cccc(O)c2)C(=O)O)cc1)c1nc2ccccc2o1` (stereo not drawn) [Example 92, 3-{4-[2-(benzoxazol-2-yl-methyl-amino)-ethoxy]-phenyl}-2-[2-(3-hydroxy-benzoyl)-phenylamino]-propionic acid]: the EC50 in the test on PPARg came out at 400 nM. Further, on hPPARgamma (setting [1]), affinity was put at a Ki of 20 nM.

Consider `CCCNS(=O)(=O)c1ccc(C(=O)c2ccccc2NC(Cc2ccc(OCCc3nc(-c4ccccc4)oc3C)cc2)C(=O)O)cc1` (stereo not drawn) [Example 93, 3-{4-[2-(5-methyl-2-phenyl-oxazol-4-yl)-ethoxy]-phenyl}-2-[2-(4-propylsulfamoyl-benzoyl)-phenylamino]-propionic acid], for which, in the test on PPARg, the EC50 is 55 nM. The compound further came in with a Ki on hPPARgamma (setting [1]) of 100 nM.

Regarding `Cc1oc(-c2ccccc2)nc1CCOc1ccc(CC(Nc2ccccc2C(=O)c2cccc(N)c2)C(=O)O)cc1` (stereo not drawn) [Example 94, 2-[2-(3-amino-benzoyl)-phenylamino]-3-{4-[2-(5-methyl-2-phenyl-oxazol-4-yl)-ethoxy]-phenyl}-propionic acid], the EC50 with PPARg worked out at 10 nM. The same compound gave an inhibition constant (Ki) on hPPARgamma (setting [1]) of 40 nM.

On to `Cc1oc(-c2ccccc2)nc1CCOc1ccc(CC(Nc2ccccc2C(=O)c2cccc(NS(C)(=O)=O)c2)C(=O)O)cc1` (stereo not drawn) [Example 95, 2-[2-(3-methanesulfonylamino-benzoyl)-phenylamino]-3-{4-[2-(5-methyl-2-phenyl-oxazol-4-yl)-ethoxy]-phenyl}-propionic acid], for which the EC50 in the test on PPARg is 700 nM. Moreover, the Ki on hPPARgamma (setting [1]) amounted to 380 nM.

As to `COC(=O)Nc1cccc(C(=O)c2ccccc2NC(Cc2ccc(OCCc3nc(-c4ccccc4)oc3C)cc2)C(=O)O)c1` (stereo not drawn) [Example 96, 2-[2-(3-methoxycarbonylamino-benzoyl)-phenylamino]-3-{4-[2-(5-methyl-2-phenyl-oxazol-4-yl)-ethoxy]-phenyl}-propionic acid], the EC50 in the test on PPARg worked out at 300 nM. This compound had a Ki on hPPARgamma (setting [1]) of 280 nM.

In the case of `Cc1oc(-c2ccccc2)nc1CCOc1ccc(CC(Nc2ccccc2C(=O)c2cccc(O)c2)C(=O)O)cc1` (stereo not drawn) [Example 97, 2-[2-(3-hydroxy-benzoyl)-phenylamino]-3-{4-[2-(5-methyl-2-phenyl-oxazol-4-yl)-ethoxy]-phenyl}-propionic acid], the EC50 with PPARg amounted to 20 nM. The compound further had a Ki at hPPARgamma (setting [1]) of 5 nM.

For `Cc1oc(-c2ccccc2)nc1CCOc1ccc(CC(Nc2ccccc2C(=O)c2cccc(OCC(N)=O)c2)C(=O)O)cc1` (stereo not drawn) [Example 98, 2-[2-(3-Carbanoylmethoxy-benzoyl)-phenylamino]-3-{4-[2-(5-methyl-2-phenyl-oxazol-4-yl)-ethoxy]-phenyl}-propionic acid], in the test with PPARg, the EC50 is 375 nM. Moreover, at hPPARgamma (setting [1]), the Ki stood at 10 nM.

For the compound `COC(=O)c1ccccc1N[C@@H](Cc1ccc(OCCc2ccc(N(C)C)cc2)cc1)C(=O)O` [Example 104, 2(S)-(1-carboxy-2-{4-[2-(4-dimethylamino-phenyl)-ethoxy]-phenyl}-ethylamino)-benzoic acid methyl ester], the EC50 with PPARg was 900 nM. The same compound gave a Ki on hPPARgamma (setting [1]) of 3000 nM.

Turning to `COC(=O)c1ccccc1N[C@@H](Cc1ccc(OCCc2nc(N3CCN(C)CC3)sc2C)cc1)C(=O)O` [Example 105], the EC50 in the test with PPARg was 35 nM. Further, the Ki on hPPARgamma (read-out: PPARg Ki; competition with [3H]-BRL 49,653, room temperature 2 hrs) was found to be 140 nM.

For `COC(=O)c1ccccc1N[C@@H](Cc1ccc(OCCc2ccc(Cl)cc2)cc1)C(=O)O` [Example 106, 2(S)-(1-carboxy-2-{4-[2-(4-chloro-phenyl)-ethoxy]-phenyl}-ethylamino)-benzoic acid methyl ester], the EC50 in the test on PPARg was 300 nM. This compound also registered a Ki at hPPARgamma (setting [1]) of 140 nM.

`COC(=O)c1ccccc1N[C@@H](Cc1ccc(OCCc2ccc(OC(F)(F)F)cc2)cc1)C(=O)O` [Example 107, 2(S)-(1-carboxy-2-{4-[2-(4-trifluoromethoxy-phenyl)-ethoxy]-phenyl}-ethylamino)-benzoic acid methyl ester]: the EC50 in the test with PPARg was determined as 190 nM. In addition, the Ki on hPPARgamma (setting [1]) amounted to 40 nM.

Turning to `CN(CCOc1ccc(CC(Nc2ccccc2C(=O)c2ccc(-c3ccccc3)cc2)C(=O)O)cc1)c1nc2ccccc2o1` (stereo not drawn) [Example 109, 3-{4-[2-(Benzoxazol-2-yl-methylamino)-ethoxy]-phenyl}-2-(2-(4-biphenylcarbonyl)-phenylamino)-propionic acid], the EC50 in the test on PPARg is 200 nM. The compound further had a Ki at hPPARgamma (setting [1]) of 700 nM.

For `COc1ccc(C(=O)c2ccccc2NC(Cc2ccc(OCCN(C)c3nc4ccccc4o3)cc2)C(=O)O)cc1` (stereo not drawn) [Example 110, 3-{4-[2-(Benzoxazol-2-yl-methylamino)-ethoxy]-phenyl}-2-(2-(4-methoxy-benzoyl)-phenylamino)-propionic acid], the EC50 in the test with PPARg amounted to 65 nM. The Ki at hPPARgamma (setting [1]) worked out at 50 nM.

In the case of `Cc1ccc(C(=O)c2ccccc2NC(Cc2ccc(OCCN(C)c3nc4ccccc4o3)cc2)C(=O)O)cc1` (stereo not drawn) [Example 111, 3-{4-[2-(Benzoxazol-2-yl-methylamino)-ethoxy]-phenyl}-2-(2-(4-methyl-benzoyl)-phenylamino)-propionic acid], the EC50 in the test on PPARg was determined as 10 nM. The compound also yielded a Ki on hPPARgamma (setting [1]) of 70 nM.

`Cc1ccccc1C(=O)c1ccccc1NC(Cc1ccc(OCCN(C)c2nc3ccccc3o2)cc1)C(=O)O` (stereo not drawn) [Example 112, 3-{4-[2-(Benzoxazol-2-yl-methylamino)-ethoxy]-phenyl}-2-(2-(2-methyl-benzoyl)-phenylamino)-propionic acid]: the EC50 with PPARg worked out at 10 nM. Further, the Ki on hPPARgamma (setting [1]) was found to be 130 nM.

On to `O=C(c1ccccc1)c1ccccc1N[C@@H](Cc1ccc(OCCSc2ccc(Cl)cc2)cc1)C(=O)O` [Example 115, 2-(2-Benzoyl-phenylamino)-3-{4-2[-(4-chloro-phenylsulfanyl)ethoxy]-phenyl}-propionic acid], for which the EC50 in the test with PPARg came out at 165 nM. On hPPARgamma (setting [1]), this compound gave a Ki of 200 nM.

Usually EC50 stands for the concentration that produces a half-maximal response. Usually Ki stands for a measure of affinity in units of concentration, obtained from inhibition or displacement.

These data come from patent US6294580A, “Substituted 4-hydroxy-phenylalcanoic acid derivatives with agonist activity to PPAR-gamma” (Glaxo Wellcome Inc., priority 1996, dated 2001).
